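Five compound concentrations were applied to cells in 96-well plates for 48 hours; endpoints were derived by simple linear interpolation of the resulting dose-response curve. The concentration for 50% growth inhibition is given as GI50.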 Calls of active or inactive are those of the source. Rule as the data show it: active = GI50 up to about 1.1 µM and inactive = higher.
How the values were obtained:
Experiment in all cases: NCI anticancer screen, dose series, 48 h
SW-620 = tested on: SW-620
DLD-1 = tested on: DLD-1
HOP-18 = tested on: HOP-18
DMS-273 = tested on: DMS-273
K562 = tested on: K562
SN12C = tested on: SN12C
HOP-62 = tested on: HOP-62
NCI-H522 = tested on: NCI-H522
OVCAR-8 = tested on: OVCAR-8
KM12 = tested on: KM12
HL-60 = tested on: HL-60
SF-268 = tested on: SF-268
COLO 205 = tested on: COLO 205
HCT-15 = tested on: HCT-15
HCT-116 = tested on: HCT-116
TK-10 = tested on: TK-10
SNB-75 = tested on: SNB-75
SK-MEL-5 = tested on: SK-MEL-5
ACHN = tested on: ACHN
CCRF-CEM = tested on: CCRF-CEM
DMS-114 = tested on: DMS-114
M14 = tested on: M14
SNB-19 = tested on: SNB-19
SK-MEL-2 = tested on: SK-MEL-2
RXF 631 = tested on: RXF 631
NCI-H226 = tested on: NCI-H226
OVCAR-3 = tested on: OVCAR-3
RXF 393 = tested on: RXF 393
OVCAR-4 = tested on: OVCAR-4
EKVX = tested on: EKVX
M19-MEL = tested on: M19-MEL
A549 = tested on: A549
HT-29 = tested on: HT-29
Malme-3M = tested on: Malme-3M
SR = tested on: SR
HCC 2998 = tested on: HCC 2998
MOLT-4 = tested on: MOLT-4
RPMI-8226 = tested on: RPMI-8226
IGROV-1 = tested on: IGROV-1
SK-OV-3 = tested on: SK-OV-3
LXFL 529 = tested on: LXFL 529
KM-20L2 = tested on: KM-20L2
SNB-78 = tested on: SNB-78
CAKI-1 = tested on: CAKI-1
SK-MEL-28 = tested on: SK-MEL-28
NCI-H23 = tested on: NCI-H23
786-0 = tested on: 786-0
UACC-257 = tested on: UACC-257
A498 = tested on: A498
U-251 = tested on: U-251
UO-31 = tested on: UO-31
UACC-62 = tested on: UACC-62
OVCAR-5 = tested on: OVCAR-5
SF-295 = tested on: SF-295
HOP-92 = tested on: HOP-92
XF498 = tested on: XF498
NCI-H460 = tested on: NCI-H460
SF-539 = tested on: SF-539
LOX IMVI = tested on: LOX IMVI

For `COc1cc2ccc(CC(=O)O)cc2cc1OC`, the GI50 (SW-620) was > 100 µM (inactive), the GI50 (DLD-1) was > 100 µM (inactive) and the GI50 (HOP-18) was > 100 µM (inactive). For the same molecule, the GI50 (DMS-273) was > 100 µM (inactive), the GI50 (K562) was > 100 µM (inactive) and the GI50 (SN12C) was > 100 µM (inactive). For the same molecule, the GI50 (HOP-62) was > 100 µM (inactive), the GI50 (NCI-H522) was > 100 µM (inactive) and the GI50 (OVCAR-8) was > 100 µM (inactive). The GI50 (KM12) was > 100 µM (inactive), the GI50 (HL-60) was > 100 µM (inactive) and the GI50 (SF-268) was > 100 µM (inactive). For the same molecule, the GI50 (COLO 205) was > 100 µM (inactive), the GI50 (HCT-15) was over 100 µM and the GI50 (HCT-116) was > 100 µM (inactive). For the same molecule, the GI50 (TK-10) was > 100 µM (inactive), the GI50 (SNB-75) was > 100 µM (inactive) and the GI50 (SK-MEL-5) was > 100 µM (inactive). For the same molecule, the GI50 (ACHN) was > 100 µM (inactive), the GI50 (CCRF-CEM) was > 100 µM (inactive) and the GI50 (DMS-114) was > 100 µM (inactive). The GI50 (M14) was > 100 µM (inactive), the GI50 (SNB-19) was > 100 µM (inactive) and the GI50 (SK-MEL-2) was > 100 µM (inactive). For the same molecule, the GI50 (RXF 631) was > 100 µM (inactive), the GI50 (NCI-H226) was > 100 µM (inactive) and the GI50 (OVCAR-3) was > 100 µM (inactive). For the same molecule, the GI50 (RXF 393) was > 100 µM (inactive), the GI50 (OVCAR-4) was > 100 µM (inactive) and the GI50 (EKVX) was > 100 µM (inactive). For the same molecule, the GI50 (M19-MEL) was > 100 µM (inactive), the GI50 (A549) was > 100 µM (inactive) and the GI50 (HT-29) was > 100 µM (inactive). The GI50 (Malme-3M) was > 100 µM (inactive), the GI50 (SR) was > 100 µM (inactive) and the GI50 (HCC 2998) was > 100 µM (inactive). For the same molecule, the GI50 (MOLT-4) was > 100 µM (inactive), the GI50 (RPMI-8226) was > 100 µM (inactive) and the GI50 (IGROV-1) was > 100 µM (inactive). The GI50 (SK-OV-3) was > 100 µM (inactive), the GI50 (LXFL 529) was > 100 µM (inactive) and the GI50 (KM-20L2) was > 100 µM (inactive). The GI50 (SNB-78) was > 100 µM (inactive), the GI50 (CAKI-1) was > 100 µM (inactive) and the GI50 (SK-MEL-28) was > 100 µM (inactive). For the same molecule, the GI50 (NCI-H23) was > 100 µM (inactive), the GI50 (786-0) was > 100 µM (inactive) and the GI50 (UACC-257) was > 100 µM (inactive). For the same molecule, the GI50 (A498) was > 100 µM (inactive), the GI50 (U-251) was > 100 µM (inactive) and the GI50 (UO-31) was > 100 µM (inactive). The GI50 (UACC-62) was > 100 µM (inactive).

For `O=[N+]([O-])c1cccc(C2=NN(c3ccccc3)C3c4cc(Br)ccc4OCC23)c1` (stereo unspecified), the GI50 (SW-620) was > 100 µM (inactive), the GI50 (DLD-1) was > 100 µM (inactive) and the GI50 (HOP-18) was > 100 µM (inactive). For the same molecule, the GI50 (OVCAR-5) was > 100 µM (inactive), the GI50 (DMS-273) was > 100 µM (inactive) and the GI50 (K562) was > 100 µM (inactive). The GI50 (HOP-62) was > 100 µM (inactive), the GI50 (NCI-H522) was 97.5 µM (inactive) and the GI50 (OVCAR-8) was > 100 µM (inactive). The GI50 (KM12) was 81.8 µM (inactive), the GI50 (HL-60) was > 100 µM (inactive) and the GI50 (SF-268) was > 100 µM (inactive). The GI50 (COLO 205) was > 100 µM (inactive), the GI50 (HCT-116) was 45.9 µM (inactive) and the GI50 (TK-10) was > 100 µM (inactive). For the same molecule, the GI50 (SNB-75) was > 100 µM (inactive), the GI50 (SK-MEL-5) was > 100 µM (inactive) and the GI50 (SF-295) was > 100 µM (inactive). For the same molecule, the GI50 (ACHN) was > 100 µM (inactive), the GI50 (CCRF-CEM) was > 100 µM (inactive) and the GI50 (DMS-114) was > 100 µM (inactive). The GI50 (SNB-19) was > 100 µM (inactive), the GI50 (SK-MEL-2) was > 100 µM (inactive) and the GI50 (OVCAR-3) was > 100 µM (inactive). For the same molecule, the GI50 (RXF 393) was > 100 µM (inactive), the GI50 (HOP-92) was 12 µM (inactive) and the GI50 (EKVX) was 87.7 µM (inactive). The GI50 (M19-MEL) was > 100 µM (inactive), the GI50 (XF498) was > 100 µM (inactive) and the GI50 (A549) was > 100 µM (inactive). The GI50 (HT-29) was 46.1 µM (inactive), the GI50 (Malme-3M) was > 100 µM (inactive) and the GI50 (HCC 2998) was > 100 µM (inactive). For the same molecule, the GI50 (NCI-H460) was > 100 µM (inactive), the GI50 (MOLT-4) was > 100 µM (inactive) and the GI50 (SF-539) was > 100 µM (inactive). The GI50 (RPMI-8226) was > 100 µM (inactive), the GI50 (IGROV-1) was > 100 µM (inactive) and the GI50 (SK-OV-3) was > 100 µM (inactive). For the same molecule, the GI50 (LXFL 529) was > 100 µM (inactive), the GI50 (KM-20L2) was > 100 µM (inactive) and the GI50 (SNB-78) was > 100 µM (inactive). The GI50 (SK-MEL-28) was > 100 µM (inactive), the GI50 (NCI-H23) was > 100 µM (inactive) and the GI50 (786-0) was > 100 µM (inactive). The GI50 (UACC-257) was > 100 µM (inactive), the GI50 (A498) was > 100 µM (inactive) and the GI50 (LOX IMVI) was > 100 µM (inactive). The GI50 (U-251) was > 100 µM (inactive) and the GI50 (UO-31) was 17.3 µM (inactive).

With `NC1=NN(c2ccccc2)C(=O)C1C(=O)C(=O)Nc1ccccc1` (stereo unspecified) the GI50 (SW-620) was > 100 µM (inactive), the GI50 (DLD-1) was > 100 µM (inactive) and the GI50 (HOP-18) was > 100 µM (inactive). The GI50 (OVCAR-5) was > 100 µM (inactive), the GI50 (DMS-273) was > 100 µM (inactive) and the GI50 (K562) was > 100 µM (inactive). The GI50 (SN12C) was > 100 µM (inactive), the GI50 (HOP-62) was > 100 µM (inactive) and the GI50 (NCI-H522) was > 100 µM (inactive). The GI50 (OVCAR-8) was > 100 µM (inactive), the GI50 (KM12) was > 100 µM (inactive) and the GI50 (HL-60) was > 100 µM (inactive). For the same molecule, the GI50 (SF-268) was > 100 µM (inactive), the GI50 (COLO 205) was > 100 µM (inactive) and the GI50 (HCT-15) was over 100 µM. The GI50 (HCT-116) was > 100 µM (inactive), the GI50 (TK-10) was > 100 µM (inactive) and the GI50 (SK-MEL-5) was > 100 µM (inactive). The GI50 (SF-295) was > 100 µM (inactive), the GI50 (ACHN) was > 100 µM (inactive) and the GI50 (CCRF-CEM) was > 100 µM (inactive). The GI50 (DMS-114) was > 100 µM (inactive), the GI50 (M14) was > 100 µM (inactive) and the GI50 (SNB-19) was > 100 µM (inactive). For the same molecule, the GI50 (SK-MEL-2) was > 100 µM (inactive), the GI50 (NCI-H226) was > 100 µM (inactive) and the GI50 (OVCAR-3) was > 100 µM (inactive). For the same molecule, the GI50 (OVCAR-4) was > 100 µM (inactive), the GI50 (HOP-92) was > 100 µM (inactive) and the GI50 (EKVX) was > 100 µM (inactive). The GI50 (M19-MEL) was > 100 µM (inactive), the GI50 (XF498) was > 100 µM (inactive) and the GI50 (A549) was > 100 µM (inactive). The GI50 (HT-29) was > 100 µM (inactive), the GI50 (Malme-3M) was > 100 µM (inactive) and the GI50 (HCC 2998) was > 100 µM (inactive). The GI50 (NCI-H460) was > 100 µM (inactive), the GI50 (MOLT-4) was > 100 µM (inactive) and the GI50 (SF-539) was > 100 µM (inactive). The GI50 (RPMI-8226) was > 100 µM (inactive), the GI50 (IGROV-1) was > 100 µM (inactive) and the GI50 (SK-OV-3) was > 100 µM (inactive). The GI50 (LXFL 529) was > 100 µM (inactive), the GI50 (KM-20L2) was > 100 µM (inactive) and the GI50 (SNB-78) was > 100 µM (inactive). For the same molecule, the GI50 (CAKI-1) was > 100 µM (inactive), the GI50 (NCI-H23) was > 100 µM (inactive) and the GI50 (786-0) was > 100 µM (inactive). The GI50 (UACC-257) was > 100 µM (inactive), the GI50 (A498) was > 100 µM (inactive) and the GI50 (LOX IMVI) was > 100 µM (inactive). The GI50 (U-251) was > 100 µM (inactive), the GI50 (UO-31) was > 100 µM (inactive) and the GI50 (UACC-62) was > 100 µM (inactive).
